This is an account of results in patent publication US5403930A, “Substituted salicylic acids” (Pharmacia AB, priority 1991, dated 1995).

In general, inhibition refers to how much of the control response was suppressed.

The test system of test [1] is Human Granulocytes. In words: FMLP-induced superoxide production of human granulocytes, 10 μM test compound. The format is cell-based. To be noted: 10 nM FMLP, 400 000 granulocytes. On the procedure:
Effects of Test Compounds on Superoxide Production of Human Granulocytes
(§1) Granulocytes were isolated from the heparinized blood from healthy volunteers. The superoxide assay was essentially that of J. M. McCord and I Fridovich (J. Biol. Chem. 244:6049-6055 (1969)) as modified by G Carlin et al. (Pharmacol. Toxicol 65:121-127 (1989)). The reaction mixture contained (final concentrations) 125 μM cytochrome C in Dulbeccos phosphate buffer with Mg and Ca, 10 μM test compound and 400 000 granulocytes treated with 5 μg/ml of cytochalasin B immediately before the experiment. This reaction mixture was preincubated at 37° C. for 10 minutes, whereafter 10 nM N-formyl-L-methionyl-L-leucyl-L-phenylalanine was added to start the reaction, making the final volume 1 ml. After 10 minutes the tubes were centrifuged and the absorbance of the supernatant at 540 and 550 nm was measured. The superoxide production was expressed as the difference in absorbance at these wavelengths.

The conditions of test [2]: rheumatoid arthritis, ulcerative colitis, ankylosing spondylitis, reactive arthritis, psoriasis; cited from earlier work.
Another test deals with human lymphocytes. The test is described as follows: Concanavalin A-induced proliferation of human lymphocytes ([3H]-thymidine). The format is cell-based. To be noted: Lymphocyte, 72 h, 250 μM test compound, 2.5 μg/ml Concanavalin A, 3 days, 2 experiments. As for the experimental part: (§2) Effect of Compounds on Human Lymphocyte Proliferation Peripheral blood mononuclear cells were isolated from heparinized blood from healthy volunteers by density gradient centrifugation as described by Bain and Pshyk, Transplantation Proc, 4:163-164 (1972). Cell proliferation induced by Concanavalin A was measured in a standard assay such as described in Soderstrom et at., Scand J Immunol, 32:503-516 (1990) using 5% fetal bovine serum in the culture medium. The reaction mixture (final concentrations) consisted of 200 000 cells stimulated with 2.5 μg/ml Concanavalin A and test compounds in a total volume of 0.2 ml. The test compounds were added at the start of the assay, which was run for a total of three days with addition ofradioactive [3H]-thymidine during the last 18 h. Cell bound radioactivity was measured in a liquid scintillation counter.

Test [3] has as its system Human Granulocytes. In words: FMLP-induced superoxide production of human granulocytes, 100 μM test compound. The conditions noted are these: 100 nM FMLP, 600 000 granulocytes. The format is cell-based. As for the experimental part:
Effects of Test Compounds on Superoxide Production of Human Granulocytes at 100 um Concentration
as §1, with “et at.” for “et al.”, “Ca, 100” for “Ca, 10”, “and 600” for “and 400”, “whereafter 100” for “whereafter 10”

Another test relates to T-lymphocytes. To be noted: cited from earlier work.
Test [4] concerns human lymphocytes and granulocytes. The test is described as follows: Overall activity judged from the results of Examples 40 to 42. On the procedure: as §2, with “Peripheral” for “Effect of Compounds on Human Lymphocyte Proliferation Peripheral”
as §1
as §1, with “et at.” for “et al.”, “Ca, 100” for “Ca, 10”, “and 600” for “and 400”, “whereafter 100” for “whereafter 10”

Entries after “also recorded” stand apart in the source; their conditions may differ.

`O=C(O)c1cc(/N=N/c2ccc(S(=O)(=O)Nc3ccccn3)cc2)ccc1O` [Sulfasalazine, reference compound] registered an inhibition at 10 µM in the test on Human Granulocytes [1] of 63.5%. Further, in test [2], the “Clinical effectiveness in autoimmune diseases” value is “clinically effective”. For the same molecule, the inhibition at 250 µM with human lymphocytes was 53.7%. In addition, at 100 µM the inhibition with Human Granulocytes [3] was 65.4%. Also, the “Inhibition of activation and proliferation of T-lymphocytes” value in the test on T-lymphocytes was “inhibits activation and proliferation of T-lymphocytes”.
Molecule `Cc1cccnc1NS(=O)(=O)c1ccc(C#Cc2ccc(O)c(C(=O)O)c2)cc1` [Example 2, 2-Hydroxy-5-[[4-[(3-methyl-2-pyridinylamino)-sulfonyl]phenyl]ethynyl]benzoic acid] registered an inhibition at 10 µM in the test on Human Granulocytes [1] of 86%. Further, in the test on human lymphocytes, the inhibition at 250 µM was determined as 99.5%. Further, the Overall activity ranking entry in test [4] is “most active; also recorded: considered to be the best one”. The inhibition at 100 µM in the test with Human Granulocytes [3] worked out at 94.1%.
